The values that follow are results of earlier work, collected in US20100278900A1, “CHLORINE DIOXIDE BASED GUM AND CANDY” (BASF Corporation, priority 2009, published 2010).

The conditions of the series: in the absence of traditional abrasives.

Turning to `[O][Cl+][O-]` [chlorine dioxide], the polishing effect entry is given as “polishing effect”.
